Ends that are not written are not given here. Peptide text beside a SMILES is read from it. * marks the point of attachment. FITC = O=C1OC2(c3ccc(O)cc3Oc3cc(O)ccc32)c2ccc(NC(=S)*)cc21; Palmitoyl = CCCCCCCCCCCCCCCC(=O)*; Ahx = NCCCCCC(=O)O
Experiments:
Format in all cases: cell-based, human
HaCaT cells [1] = assay: Cell penetration rate by flow cytometry; settings: 10 μM, 37° C., 1 hour
Method: (§1) HaCaT cells were inoculated at a concentration of 3×10^5 cells/well into a 6-well plate and incubated for 24 hours. Then, the cell culture medium was removed, followed by washing twice with HBSS, and replaced with an Opti-MEM medium. The cells were treated with 10 μM FITC-TAT, FITC-Spep001, FITC-Spep002 or FITC-Spep003 and incubated at 37° C. with 5% CO2 for 1 hour. […] Finally, the cells were treated with 1 mg/mL trypsin and thus separated into single cells, followed by centrifugation at 1,000 rpm for 5 minutes. The FITC fluorescence intensities of cell-penetrating peptides per living 10,000 cells were measured by performing flow cytometry (Navios Flow Cytometer by Beckman Coulter Life Sciences), and the result thereof is shown in FIG. 5A(i) to FIG. 5A(v) and FIG. 5B.

HDF-N cells = tested on: HDF-N cells
Method: (§2) Cytotoxicity of the cell-penetrating multifunctional peptide according to Example 1 was checked. Specifically, HaCaT cells (human keratinocytes) were inoculated at a concentration of 1.5×10^4 cells/well into a 96-well plate and incubated for 24 hours. Then, the medium was removed, followed by washing once with PBS, and replaced with a serum-free medium. The cells were treated with Spep001 (SEQ ID NO: 1), Spep002 (SEQ ID NO: 8) or Spep003 (SEQ ID NO: 9) at a concentration of 0 μM, 25 μM, 50 μM, 100 μM or 200 μM and then further incubated for 24 hours. Herein, culture conditions were maintained at 37° C. with 5% CO2.
(§3) Also, at the time of completion of incubation, a WST-1 assay (Water Soluble Tetrazolium salt-1, EZ-assay kit, DoGenBio) was conducted. Specifically, 100 μL of a WST-1 solution was added to the well of cells after the completion of further incubation and then incubated for 3 hours. Thereafter, the absorbance at 450 nm was measured using a microplate spectrophotometer (Multiskan™ GO, thermo), and the result thereof is shown in FIG. 2B and Table 2 below.
HDF-N cells were treated with 12.5 μM KTTKS (SEQ ID NO: 5), Spep001-KTTKS (SEQ ID NO: 6) and pal-KTTKS which are peptides fabricated in Example 9. The appearance and proliferation rate of the cells were measured as in Example 3, and the results thereof are shown in FIG. 9A(i) to FIG. 9A(iv), FIG. 9B and Table 7 below.

[2] = Cytotoxicity assay (WST-1, microscopy) in HaCaT cells; settings: human, HaCaT cells (keratinocytes), HaCaT, 24 hours, read-out: survival rate (WST-1)
Method: as §2
At the time of completion of further incubation, the appearance of the cells were imaged by a microscope, and the result thereof is shown in FIG. 2A(i) to FIG. 2A(xx).
as §3
Herein, all the result values are expressed in mean±standard deviation. The analysis result of each item was statistically analyzed by a 2-way analysis of variance (ANOVA) test. A Bonferroni post-test was conducted at a P value of *p<0.05 and **p<0.01 only when the significance was determined by ANOVA test. GraphPad prism 5.0.1 (GraphPad Software Inc., San Diego, CA, USA) was used as a statistical software program.

[3] = Cytotoxicity assay (WST-1, microscopy) in HDF-N cells; settings: human, HDF-N cells (dermal fibroblasts, neonatal), HDF-N, 24 hours, read-out: survival rate (WST-1)
Method: as §2, §3
The appearance of HDF-N (human dermal fibroblast-neonatal) cells were imaged by a microscope as in Example 3, and the result thereof is shown in FIG. 3A(i) to FIG. 3A(xx). However, the HDF-N cells were inoculated at a concentration of 1.0×10^4 cells/well into a 96-well plate.

HaCaT cells [4] = assay: Dependence of cell penetration on ATP (flow cytometry); settings: pre-treated with 2-DG and NaN3
Method: as §1
A test was conducted in the same conditions as those in Example 7 except that the cells were pre-treated with 2-DG (2-deoxyglucose, D6134, sigma) and NaN3 (sodium azide, 71289, sigma) one hour before treatment with FITC-TAT, FITC-Spep001, FITC-Spep002 or FITC-Spep003 to check the dependence of endocytosis on ATP. Then, the FITC fluorescence intensities of peptides penetrating into living cells were measured by flow cytometry as in Example 5, and the result thereof is shown in FIG. 7.

O=C1OC2(c3ccc(O)cc3Oc3cc(O)ccc32)c2ccc(N=C=S)cc21 [FITC, Fluorescein-5-Isothiocyanate, reference compound]
cell penetration rate (FITC-positive cell count) (HaCaT cells [1]): 0.4%

CCCCCCCCCCCCCCCC(=O)N[C@@H](CCCCN)C(=O)N[C@H](C(=O)N[C@H](C(=O)N[C@@H](CCCCN)C(=O)N[C@@H](CO)C(=O)O)[C@@H](C)O)[C@@H](C)O [Palmitoyl-KTTKS, Pal-KTTKS] (Palmitoyl-KTTKS-OH)
change in the appearance of the cells (microscope) (HDF-N cells): appearance of the cells treated with Pal-KTTKS was changed
Cell viability(%) (HDF-N cells; human, 24 h, 12.5 μM): 109.22%

N=C(N)NCCC[C@H](NC(=O)[C@H](CCCNC(=N)N)NC(=O)[C@H](CCCNC(=N)N)NC(=O)[C@H](CCC(N)=O)NC(=O)[C@H](CCCNC(=N)N)NC(=O)[C@H](CCCNC(=N)N)NC(=O)[C@H](CCCCN)NC(=O)[C@H](CCCCN)NC(=O)[C@H](CCCNC(=N)N)NC(=O)CNC(=O)[C@@H](N)Cc1ccc(O)cc1)C(=O)O [TAT, YGRKRRQRRR, reference compound]
viability at 24 h, 25 µM ([2]; 25 μM peptide): 102 ± 5.09%
viability at 24 h, 50 µM ([2]; 50 μM peptide): 106.3 ± 1.05%
viability at 24 h, 100 µM ([2]; 100 μM peptide): 106 ± 2.94%
viability at 24 h, 200 µM ([2]; 200 μM peptide): 102 ± 2.15%
viability at 24 h, 25 µM ([3]; 25 μM peptide): 106 ± 3.38%
viability at 24 h, 50 µM ([3]; 50 μM peptide): 94.9 ± 4.22%
viability at 24 h, 100 µM ([3]; 100 μM peptide): 103 ± 3.02%
viability at 24 h, 200 µM ([3]; 200 μM peptide): 96.7 ± 5.03%

FITC-Ahx-KRRWRKIPKR ({FITC-Ahx}-KRRWRKIPKR) [FITC-Spep002, Spep002 labelled with FITC at the N-terminal amine group]
FITC fluorescence intensity under ATP deficiency (HaCaT cells [4]): decreased
cell penetration rate (FITC-positive cell count) (HaCaT cells [1]): 6.3%
cell penetration rate based on TAT-FITC with a cell penetration rate of 100% (HaCaT cells [1]): 23.3%

FITC-Ahx-RKRWLRKPRP ({FITC-Ahx}-RKRWLRKPRP) [FITC-Spep003, Spep003 labelled with FITC at the N-terminal amine group]
FITC fluorescence intensity under ATP deficiency (HaCaT cells [4]): decreased
cell penetration rate (FITC-positive cell count) (HaCaT cells [1]): 7.8%
cell penetration rate based on TAT-FITC with a cell penetration rate of 100% (HaCaT cells [1]): 28.8%

Source: patent publication US11951204B2, “Cell-penetrating peptides and composition including the same” (S-SKIN. CO., LTD., priority 2022, dated 2024)
